Experimental data reported in patent EP2246331A1, “NR2B-selective NMDA-receptor antagonists” (Westfälische Wilhelms-Universität Münster, priority 2009, dated 2010).

Legend:
[1] = target: T1, polyamine binding site of the NR2B subunit of the NMDA receptor (Homo sapiens, UniProt Q05586+Q13224); assay: Filtration-based receptor binding assay with [3H]-Ifenprodil as radioligand; conditions: 5 nM [3H]-Ifenprodil; membrane homogenates of mouse L(tk-) cells transfected with NR1-1a/NR2B; 180 min at 37 °C; Ki mean of three experiments ± S.E.M.; read-out: affinity to the NR2B binding site of the NMDA receptor
T1 construct: expressed in transfected cells; host or cells: mouse L(tk-) cells, dexamethasone-induced; gift from D. Steinhilber, University of Frankfurt
Procedure: Mouse L(tk-) cells stably transfected with the dexamethasone-inducible eukaryotic expression vectors pMSG NR1-1a, pMSG NR2B in a 1:5 ratio were a generous gift from D. Steinhilber (Department of Pharmacy, University of Frankfurt, Germany). The transformed L(tk-) cells were grown in Modified Earl's Medium (MEM) containing 10% of standardized FCS (Biochrom AG, Berlin, Germany). The expression of the NMDA receptor at the cell surface was induced after the cell density of the adherent growing cells had reached approximately 90% of confluency. For the induction, the original growth medium was replaced by growth medium containing 4 µM dexamethasone and 4 µM ketamine (final concentration). After 24 h the cells were harvested by trypsination and pelleted (10 min, 5,000 x g, Hettich Rotina 35R centrifuge, Tuttlingen, Germany).
For the binding assay, the cell pellet was resuspended in PBS buffer and the number of cells was determined using an improved Neubauer's counting chamber (VWR, Darmstadt, Germany). Subsequently, the cells were lysed by sonication (4 °C, 6 x 10 s cycles with breaks of 10 sec). The resulting cell fragments were centrifuged with a high performance cool centrifuge (20,000 x g, 4 °C, Sorvall RC-5 plus, Thermo Scientific). The supernatant was discarded and the pellet resuspended in a defined volume of phosphate buffer saline (PBS) yielding cell fragments of approximately 500,000 cells/mL. The suspension of membrane homogenates was sonicated again (4 °C, 2 x 10 s cycles with a break of 10 min) and stored at -80 °C.
The cell membrane suspension was added last. All experiments were carried out in triplicates. The incubation was terminated by rapid filtration through filtermats using a cell harvester (MicroBeta FilterMate-96 Harvester, Perkin Elmer). Prior to harvesting, the filtermats were presoaked in 0.5% aqueous polyethylenimine for 2 h at room temperature. After washing each well five times with 300 µL of water, the filtermats were dried at 95 °C. Subsequently, the solid scintillator was placed on the filtermat and melted at 95 °C. After 5 min, the solid scintillator was allowed to solidify at room temperature. The bound radioactivity trapped on the filters was counted in the scintillation analyzer (Microbeta Counter, Perkin Elmer). The overall counting efficiency was 20%.
The protein concentration was determined by the method of Bradford, modified by Stoscheck. The Bradford solution was prepared by dissolving 5 mg of Coomassie Brilliant Blue G 250 in 2.5 mL EtOH (95%, v/v). 10 mL deionized H2O and 5 mL phosphoric acid (85%, m/v) were added to this solution, the mixture was stirred and filled up to a total volume of 50.0 mL with deionized water. The calibration was carried out using bovine serum protein as a standard in concentrations between 0.1 and 10 mg /L. In a 96-well standard multiplate, 10 µL of the calibration solution or 10 µL of the membrane receptor preparation were mixed with 190 µL of the Bradford solution, respectively.
Kd and Bmax were calculated as described in the "Data analysis" section.
Data analysis was performed with Graph Pad Prism® Software, Version 3.0 (Graph Pad Software Inc., San Diego, CA, USA).
Saturation analyses were made by nonlinear regression using the "one-site-saturation" calculation method. The IC50 values of the test compounds used in the competitive binding experiments were determined by nonlinear regression using the "one-site-competition" calculation method. […] The Ki values are given as mean values from three independent experiments ± Standard Error of the Mean (S.E.M).

[2] = target: T2, σ1 receptor (Cavia porcellus, UniProt Q60492); assay: Receptor binding assay with [3H]-(+)-pentazocine on guinea pig brain membranes; conditions: 2 nM [3H]-(+)-pentazocine, guinea pig brain membranes; for Ki: 180 min at 37 °C, mean ± SEM, read-out: affinity to the σ1 receptor
T2 construct: tissue Harlan Winkelmann; host or cells: guinea pig brain membranes
Procedure: (§1) The pig brains were a donation of the local slaughterhouse (Coesfeld, Germany). Homogenizer: Elvehjem Potter (B. Braun Biotech International, Melsungen, Germany). Centrifuge: High-speed cooling centrifuge model Sorvall RC-5C plus (Thermo Fisher Scientific, Langenselbold, Germany). Filter: Printed Filtermat Typ A and B (Perkin Elmer LAS, Rodgau-Jügesheim, Germany), presoaked in 0.5% aqueous polyethylenimine for 2 h at room temperature before use. […] Before filling to the final volume of 1000 mL, the pH of the solution was adjusted to pH=7.5 by dropwise addition of 1M HCl. The filtration was carried out with a MicroBeta FilterMate-96 Harvester (Perkin Elmer). The scintillation analysis was performed using Meltilex (Typ A or B) solid scintillator (Perkin Elmer). The solid scintillator was melted on the filtermat at a temperature of 95 °C for 5 minutes. After solidifying of the scintillator at room temperature, the scintillation was measured using a MicroBeta Trilux scintillation analyzer (Perkin Elmer). The overall counting efficiency was 20 %. All experiments were carried out in triplicates using standard 96-well-multiplates (Diagonal, Muenster, Germany). […] The Ki-values are given as mean value ± SEM from three independent experiments.
Determination of the affinity to the σ1 receptor
Five guinea pig brains (Harlan Winkelmann, Borchen, Germany) were homogenized with the potter (500-800 rpm, 10 up-and-down strokes) in 6 volumes of cold 0.32 M sucrose. The suspension was centrifuged at 1200 x g for 10 min at 4 °C. […] This procedure was repeated twice. The final pellet was resuspended in 5 to 6 volumes of buffer, the protein concentration was determined according to the method of Bradford using bovine serum albumin as standard, and subsequently the preparation was frozen (-80 °C) in 1.5 mL portions containing about 1.5 mg protein/mL.
The test was performed with the radioligand [^3H]-(+)-pentazocine (42,5 Ci/mmol; Perkin Elmer). […] The incubation was terminated by rapid filtration through the presoaked filtermats using a cell harvester. After washing each well five times with 300 µl of water, the filtermats were dried at 95 °C. The bound radioactivity trapped on the filters was counted in the scintillation analyzer as described in the "General procedures" section. The non-specific binding was determined with 10 µM unlabeled (+)-pentazocine.

[3] = target: T3, σ2 receptor (Rattus norvegicus, UniProt Q5U3Y7); assay: Receptor binding assay with [3H]-ditolylguanidine on rat liver membranes; conditions: 3 nM [3H]-ditolylguanidine with 2 µM (+)-pentazocine, 180 min at room temperature, mean ± SEM, read-out: affinity to the σ2 receptor
T3 construct: tissue Harlan Winkelmann; host or cells: rat liver membranes
T3 sequence (Q5U3Y7 1-176): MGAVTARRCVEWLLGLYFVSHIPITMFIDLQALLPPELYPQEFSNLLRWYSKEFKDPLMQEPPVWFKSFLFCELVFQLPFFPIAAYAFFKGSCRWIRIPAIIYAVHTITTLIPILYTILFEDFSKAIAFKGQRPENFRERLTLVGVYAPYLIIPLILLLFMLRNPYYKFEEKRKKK
Procedure: as §1
Determination of affinity to the σ2 receptor
Two rat livers (Harlan Winkelmann, Borchen, Germany) were cut into smaller pieces and homogenized with the potter (500-800 rpm, 10 up-and-down strokes) in 6 volumes of cold 0.32 M sucrose. The suspension was centrifuged at 1200 x g for 10 min at 4 °C. The supernatant was separated and centrifuged at 31000 x g for 20 min at 4 °C. The pellet was resuspended in 5-6 volumes of buffer (50 mM TRIS, pH 8.0) and incubated at room temperature for 30 minutes. After the incubation, the suspension was centrifuged again at 31000 x g for 20 min at 4 °C. The final pellet was resuspended in 5 to 6 volumes of buffer, the protein concentration was determined according to the method of Bradford using bovine serum albumin as standard, and subsequently the preparation was frozen (-80 °C) in 1.5 mL portions containing about 2 mg protein/mL.
(50 Ci/mmol; ARC). […] The incubation was terminated by rapid filtration through the presoaked filtermats using a cell harvester. After washing each well five times with 300 µL of water, the filtermats were dried at 95 °C. Subsequently, the solid scintillator was placed on the filtermat and melted at 95 °C. The bound radioactivity trapped on the filters was counted in the scintillation analyzer as described in the "General procedures" section.

[4] = target: phencyclidine binding site of the NMDA receptor; conditions: radioligand constant; T. Utech, Dissertation, 2003, Universität Freiburg; cited from earlier work

T1 sequence (Q13224 27-1484, other chains not shown): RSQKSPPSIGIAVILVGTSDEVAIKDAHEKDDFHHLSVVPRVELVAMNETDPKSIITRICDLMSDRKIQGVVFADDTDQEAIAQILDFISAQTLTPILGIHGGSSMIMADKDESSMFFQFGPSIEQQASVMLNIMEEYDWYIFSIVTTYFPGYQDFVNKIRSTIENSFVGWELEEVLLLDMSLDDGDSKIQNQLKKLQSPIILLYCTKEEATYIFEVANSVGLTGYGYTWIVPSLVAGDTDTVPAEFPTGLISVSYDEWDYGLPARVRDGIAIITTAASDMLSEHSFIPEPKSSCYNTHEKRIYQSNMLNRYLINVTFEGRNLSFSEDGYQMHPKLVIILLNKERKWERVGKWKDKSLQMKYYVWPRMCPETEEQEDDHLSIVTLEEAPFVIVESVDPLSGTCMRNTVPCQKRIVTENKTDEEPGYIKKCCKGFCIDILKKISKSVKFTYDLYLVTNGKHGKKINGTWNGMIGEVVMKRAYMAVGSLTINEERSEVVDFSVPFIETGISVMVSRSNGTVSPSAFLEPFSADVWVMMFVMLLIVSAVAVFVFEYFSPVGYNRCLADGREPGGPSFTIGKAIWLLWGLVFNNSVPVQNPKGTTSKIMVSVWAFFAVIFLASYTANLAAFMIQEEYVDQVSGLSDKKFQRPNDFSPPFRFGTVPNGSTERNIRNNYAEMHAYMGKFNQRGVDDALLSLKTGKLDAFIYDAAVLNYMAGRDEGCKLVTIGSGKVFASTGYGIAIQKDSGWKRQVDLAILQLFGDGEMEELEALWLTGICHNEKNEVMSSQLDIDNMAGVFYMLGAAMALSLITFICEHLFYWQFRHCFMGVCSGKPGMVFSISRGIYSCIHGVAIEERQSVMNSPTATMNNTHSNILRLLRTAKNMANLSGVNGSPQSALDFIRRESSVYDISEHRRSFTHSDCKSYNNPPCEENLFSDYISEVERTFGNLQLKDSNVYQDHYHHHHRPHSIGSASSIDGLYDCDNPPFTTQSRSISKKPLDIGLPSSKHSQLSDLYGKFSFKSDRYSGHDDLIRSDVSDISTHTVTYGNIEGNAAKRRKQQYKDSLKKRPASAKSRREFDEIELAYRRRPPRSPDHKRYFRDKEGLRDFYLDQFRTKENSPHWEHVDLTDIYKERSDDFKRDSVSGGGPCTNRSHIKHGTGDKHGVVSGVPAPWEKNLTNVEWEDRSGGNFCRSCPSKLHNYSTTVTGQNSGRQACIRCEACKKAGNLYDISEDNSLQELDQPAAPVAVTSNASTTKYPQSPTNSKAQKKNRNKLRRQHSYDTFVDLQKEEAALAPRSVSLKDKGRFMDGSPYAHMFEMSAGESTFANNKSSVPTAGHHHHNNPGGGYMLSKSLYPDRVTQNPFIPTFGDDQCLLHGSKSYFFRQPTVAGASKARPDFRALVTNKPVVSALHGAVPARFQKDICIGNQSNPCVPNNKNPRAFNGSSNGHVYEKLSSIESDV
T2 sequence (Q60492 whole entry): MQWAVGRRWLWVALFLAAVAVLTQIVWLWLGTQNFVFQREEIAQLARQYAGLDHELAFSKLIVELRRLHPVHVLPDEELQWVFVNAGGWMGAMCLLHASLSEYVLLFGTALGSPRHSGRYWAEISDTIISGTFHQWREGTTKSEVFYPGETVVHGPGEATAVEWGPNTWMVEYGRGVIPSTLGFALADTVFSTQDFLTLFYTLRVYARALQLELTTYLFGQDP

Compound | Ki [1] | Ki [2] | Ki [3] | inhibition of the σ1 receptor only at concentrations above ([2]; given as above 1 µM or 10 µM) | Kd [4]
OC1CN(C2CCC3(CC2)OCCO3)CCc2cc(OCc3ccccc3)ccc21 (stereo not shown) [formula (25)] | 1.12 nM | 183 nM | 753 nM | – | –
O=C(c1ccccc1)N1CCC(N2CCc3cc(O)ccc3C(O)C2)CC1 (stereo not shown) [formula (26)] | 393 nM | – | 97.7 nM | above 1 µM | –
C[C@@H]1[C@H](O)c2ccc(O)cc2CCN1CCCCc1ccccc1 [formula (27)] | 12.3 nM | 85.5 nM | 142 nM | – | –
C[C@H]1[C@@H](O)c2ccc(O)cc2CCN1CCCCc1ccccc1 [formula (28)] | 22.1 nM | 393 nM | 103 nM | – | –
(+)-MK-801 | – | – | – | – | 2.26 nM
